# Measurements reported in article PMC3258498 (Journal of Medicinal Chemistry, 2011).
# pEC50: −log10 of the molar value. Where “and” joins values, the source holds several entries; their conditions need not be identical. Equal values may be shown once. Read-outs that look alike come from different tables or passages of the source.
# Key:
# WT HIV-1 = settings: cited from earlier work
# [1] = tested on: IIIB strain of HIV-1 (WT); assay: Anti-HIV-1 activity in infected MT-2 human T-cells, MTT colorimetric method; assay type: cell-based; settings: for gain in potency: in going from 1
# HIV-1 Y181C variant [2] = settings: read-out: activity for the Y181C-containing variant; cited from earlier work
# HIV-1 Y181C variant [3] = settings: read-out: EC50 Y181C; Literature data, MT4 cells; cited from earlier work
# [4] = tested on: HIV-1 K103N/Y181C variant; settings: read-out: EC50 K103N/Y181C; Literature data, MT4 cells; cited from earlier work
# [5] = read-out: activity for WT HIV-1
smiles,measurement,setting,value
Cc1cc(C)cc(Oc2c(CSCc3ccco3)c(C)[nH]c(=O)c2I)c1 [compound 3],pEC50,WT HIV-1; read-out: activity towards WT HIV-1,8.00 to 9.00 and 8.70
O=c1ccn(CCOc2ccc(Cl)cc2Cc2cc(Cl)ccc2Cl)c(=O)[nH]1 [compound 10],gain in potency,[1],ca. 15 fold
O=c1ccn(CCOc2ccc(Cl)cc2Cc2c(Cl)cccc2Cl)c(=O)[nH]1 [compound 11],gain in potency,[1],ca. 15 fold
N#Cc1ccc(Oc2cc(Cl)ccc2Cl)c(OCCc2ccncc2)c1 [compound 33],worsening of the EC50 value,[1]; relative to 31,18 fold
CCc1c(C)[nH]c(=O)c(I)c1Oc1cccc(/C=C/C#N)c1 [compound 38],pEC50,WT HIV-1; [5],> 8.30
same,pEC50,HIV-1 Y181C variant [2],> 8.30
"Cc1cc(/C=C/C#N)cc(C)c1Nc1ccnc(Nc2ccc(C#N)cc2)n1 [compound 39, 4-[[4-[[4-[(1E)-2-cyanoethenyl]-2,6-dimethylphenyl]amino]-2-pyrimidinyl]amino]benzonitrile]",pEC50,WT HIV-1; [5],> 8.30
same,pEC50,HIV-1 Y181C variant [2],> 8.30
Cc1ccnc2c1NC(=O)c1cccnc1N2C1CC1 [nevirapine],pEC50,HIV-1 Y181C variant [3],< 5.00
same,pEC50,[4],< 5.00
